System: NBD1/3D
Assay: Aggregation analysis using differential static light scattering (DSLS), NBD1 thermal stability
Format: binding, Human
Settings: ΔTagg versus DMSO control; compound at 100 μM
Method in brief: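 Thermal stabilisation reported as ΔTagg, i.e. aggregation temperature relative to averaged DMSO wells. Tagg came from the inflection of differential static light scattering imaged 25–70 °C while NBD1 (0.2 mg/ml, Tris pH 7.6 buffer containing ATP, MgCl2, DTT, glycerol) was ramped 1 °C/min.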

Row | Structure (SMILES) | DSLS NBD1/3D Human Stability delta-T (° C.) @ 100 (μM)
1 | CS(=O)(=O)c1c(Oc2ccc(F)c(-c3nc(C4(c5cccc(CCC(=O)O)c5)CCCC4)c[nH]3)c2)c(F)cc2[nH]ccc12 [Example 47, 3-(3-(1-(2-(2-fluoro-5-((6-fluoro-4-(methylsulfonyl)-1H-indol-5-yl)oxy)phenyl)-1H-imidazol-5-yl)cyclopentyl)phenyl)propanoic acid] | A (A: T ≥ 10° C.)
2 | CC(C#N)(c1cccc(CCC(=O)O)c1)c1c[nH]c(-c2cc(Oc3c(F)cc4[nH]ccc4c3S(C)(=O)=O)ccc2F)n1 (stereo not drawn) [Example 48, 3-(3-(1-Cyano-1-(2-(2-fluoro-5-((6-fluoro-4-(methylsulfonyl)-1H-indol-5-yl)oxy)phenyl)-1H-imidazol-4-yl)ethyl)phenyl)propanoic acid] | A (A: T ≥ 10° C.)
3 | CC(C#N)(c1cccc(CCC(=O)O)c1)c1cnc(-c2cc(Oc3c(F)c(F)c4[nH]ccc4c3S(C)(=O)=O)ccc2F)[nH]1 (stereo not drawn) [Example 49, 3-(3-(1-Cyano-1-(2-(5-((6,7-difluoro-4-(methylsulfonyl)-1H-indol-5-yl)oxy)-2-fluorophenyl)-1H-imidazol-5-yl)ethyl)phenyl)propanoic acid] | A (A: T ≥ 10° C.)
4 | Cc1c(Oc2ccc(F)c(-c3ncc(C(C)(C#N)c4cccc(CCC(=O)O)c4)[nH]3)c2)c(F)cc2[nH]ccc12 (stereo not drawn) [Example 50, 3-(3-(1-cyano-1-(2-(2-fluoro-5-((6-fluoro-4-methyl-1H-indol-5-yl)oxy)phenyl)-1H-imidazol-5-yl)ethyl)phenyl)propanoic acid] | B (B: 5-10° C.)
5 | CCC(C#N)(c1cccc(CCC(=O)O)c1)c1c[nH]c(-c2cc(Oc3c(F)cc4[nH]ccc4c3C)ccc2F)n1 (stereo not drawn) [Example 51, 3-(3-(1-cyano-1-(2-(2-fluoro-5-((6-fluoro-4-methyl-1H-indol-5-yl)oxy)phenyl)-1H-imidazol-4-yl)propyl)phenyl)propanoic acid] | A (A: T ≥ 10° C.)
6 | CC(C#N)(c1cccc(CCC(=O)O)c1)c1cnc(-c2cc(Oc3c(F)c(F)c4[nH]ccc4c3C3CC3)ccc2F)[nH]1 (stereo not drawn) [Example 53, 3-(3-(1-cyano-1-(2-(5-((4-cyclopropyl-6,7-difluoro-1H-indol-5-yl)oxy)-2-fluorophenyl)-1H-imidazol-5-yl)ethyl)phenyl)propanoic acid] | B (B: 5-10° C.)
7 | CC(C#N)(c1cccc(CCC(=O)O)c1)c1cnc(-c2cc(Oc3c(F)c(F)c4[nH]ccc4c3F)ccc2F)[nH]1 (stereo not drawn) [Example 54, 3-(3-(1-cyano-1-(2-(2-fluoro-5-((4,6,7-trifluoro-1H-indol-5-yl)oxy)phenyl)-1H-imidazol-5-yl)ethyl)phenyl)propanoic acid] | B (B: 5-10° C.)
8 | CC(C#N)(c1cccc(CCC(=O)O)c1)c1c[nH]c(-c2cc(Oc3c(F)cc4[nH]ccc4c3CC(F)F)ccc2F)n1 (stereo not drawn) [Example 55, 3-(3-(1-cyano-1-(2-(5-((4-(2,2-difluoroethyl)-6-fluoro-1H-indol-5-yl)oxy)-2-fluorophenyl)-1H-imidazol-4-yl)ethyl)phenyl)propanoic acid] | B (B: 5-10° C.)
9 | Cc1c(Oc2ccc(F)c(-c3ncc(C(C)(C#N)c4cccc(CCC(=O)O)c4)[nH]3)c2)c(F)c(F)c2[nH]ccc12 (stereo not drawn) [Example 56, 3-(3-(1-cyano-1-(2-(5-((6,7-difluoro-4-methyl-1H-indol-5-yl)oxy)-2-fluorophenyl)-1H-imidazol-5-yl)ethyl)phenyl)propanoic acid] | B (B: 5-10° C.)
10 | Cc1c(Oc2ccc(F)c(-c3ncc(C(C)(C#N)c4cccc(CCC(=O)O)c4)[nH]3)c2)c(F)c(F)c2[nH]cc(Cl)c12 (stereo not drawn) [Example 57, 3-(3-(1-(2-(5-((3-chloro-6,7-difluoro-4-methyl-1H-indol-5-yl)oxy)-2-fluorophenyl)-1H-imidazol-5-yl)-1-cyanoethyl)phenyl)propanoic acid] | B (B: 5-10° C.)
11 | CC(C#N)(c1cccc(CCC(=O)O)c1)c1c[nH]c(-c2cc(Oc3c(F)cc4[nH]ccc4c3F)ccc2F)n1 (stereo not drawn) [Example 58, 3-(3-(1-cyano-1-(2-(5-((4,6-difluoro-1H-indol-5-yl)oxy)-2-fluorophenyl)-1H-imidazol-4-yl)ethyl)phenyl)propanoic acid] | B (B: 5-10° C.)
12 | [2H]C([2H])([2H])C(C#N)(c1cccc(CCC(=O)O)c1)c1cnc(-c2cc(Oc3c(F)cc4[nH]ccc4c3C)ccc2F)[nH]1 (stereo not drawn) [Example 59, 3-(3-(1-cyano-1-(2-(2-fluoro-5-((6-fluoro-4-methyl-1H-indol-5-yl)oxy)phenyl)-1H-imidazol-5-yl)ethyl-2,2,2-d3)phenyl)propanoic acid] | B (B: 5-10° C.)
13 | [2H]C([2H])([2H])C(C#N)(c1cccc(CCC(=O)O)c1)c1cnc(-c2cc(Oc3c(F)cc4[nH]ccc4c3F)ccc2F)[nH]1 (stereo not drawn) [Example 60, 3-(3-(1-cyano-1-(2-(5-((4,6-difluoro-1H-indol-5-yl)oxy)-2-fluorophenyl)-1H-imidazol-5-yl)ethyl-2,2,2-d3)phenyl)propanoic acid] | B (B: 5-10° C.)
14 | CC(C#N)(c1cccc(CCC(=O)O)c1)c1cnc(-c2cc(Oc3nc4cc[nH]c4cc3F)ccc2F)[nH]1 (stereo not drawn) [Example 61, 3-(3-(1-cyano-1-(2-(2-fluoro-5-((6-fluoro-1H-pyrrolo[3,2-b]pyridin-5-yl)oxy)phenyl)-1H-imidazol-5-yl)ethyl)phenyl)propanoic acid] | B (B: 5-10° C.)
15 | CC(C#N)(c1cccc(CCC(=O)O)c1)c1cnc(-c2cc(Oc3c(F)cc4[nH]cnc4c3F)ccc2F)[nH]1 (stereo not drawn) [Example 62, 3-(3-(1-cyano-1-(2-(5-((4,6-difluoro-1H-benzo[d]imidazol-5-yl)oxy)-2-fluorophenyl)-1H-imidazol-5-yl)ethyl)phenyl)propanoic acid] | B (B: 5-10° C.)
16 | [2H]C([2H])([2H])C(C#N)(c1cc(F)cc(CCC(=O)O)c1)c1cnc(-c2cc(Oc3c(F)c(F)c4[nH]ccc4c3C)ccc2F)[nH]1 (stereo not drawn) [Example 63, 3-(3-(1-cyano-1-(2-(5-((6,7-difluoro-4-methyl-1H-indol-5-yl)oxy)-2-fluorophenyl)-1H-imidazol-5-yl)ethyl-2,2,2-d3)-5-fluorophenyl)propanoic acid] | B (B: 5-10° C.)
17 | CC(CO)(c1cccc(CCC(=O)O)c1)c1cnc(-c2cc(Oc3c(F)cc4[nH]ccc4c3S(C)(=O)=O)ccc2F)[nH]1 (stereo not drawn) [Example 68, 3-(3-(2-(2-(2-Fluoro-5-((6-fluoro-4-(methylsulfonyl)-1H-indol-5-yl)oxy)phenyl)-1H-imidazol-5-yl)-1-hydroxypropan-2-yl)phenyl)propanoic acid] | A (A: T ≥ 10° C.)
18 | CC(CO)(c1cccc(CCC(=O)O)c1)c1c[nH]c(-c2cc(Oc3c(F)c(F)c4[nH]ccc4c3S(C)(=O)=O)ccc2F)n1 (stereo not drawn) [Example 69, 3-(3-(2-(2-(5-((6,7-difluoro-4-(methylsulfonyl)-1H-indol-5-yl)oxy)-2-fluorophenyl)-1H-imidazol-5-yl)-1-hydroxypropan-2-yl)phenyl)propanoic acid] | A (A: T ≥ 10° C.)
19 | CO[C@]1(C)C[C@@](c2cccc(CCC(=O)O)c2)(c2cnc(-c3cc(Oc4c(F)c(F)c5[nH]ccc5c4S(C)(=O)=O)ccc3F)[nH]2)C1 [Example 70, rac-3-(3-((1r,3r)-1-(2-(5-((6,7-Difluoro-4-(methylsulfonyl)-1H-indol-5-yl)oxy)-2-fluorophenyl)-1H-imidazol-5-yl)-3-methoxy-3-methylcyclobutyl)phenyl)propanoic acid] | A (A: T ≥ 10° C.)
20 | CO[C@]1(C)C[C@@](c2cccc(CCC(=O)O)c2)(c2c[nH]c(-c3cc(Oc4c(F)cc5[nH]ccc5c4S(C)(=O)=O)ccc3F)n2)C1 [Example 71, 3-(3-((1r,3r)-1-(2-(2-fluoro-5-((6-fluoro-4-(methylsulfonyl)-1H-indol-5-yl)oxy)phenyl)-1H-imidazol-4-yl)-3-methoxy-3-methylcyclobutyl)phenyl)propanoic acid] | A (A: T ≥ 10° C.)
21 | CO[C@]1(C)C[C@@](c2cc(F)cc(CCC(=O)O)c2)(c2c[nH]c(-c3cc(Oc4c(F)cc5[nH]ccc5c4S(C)(=O)=O)ccc3F)n2)C1 [Example 72, 3-(3-Fluoro-5-((1r,3r)-1-(2-(2-fluoro-5-((6-fluoro-4-(methylsulfonyl)-1H-indol-5-yl)oxy)phenyl)-1H-imidazol-5-yl)-3-methoxy-3-methylcyclobutyl)phenyl)propanoic acid] | A (A: T ≥ 10° C.)
22 | CO[C@]1(C)C[C@](c2cc(F)cc(CCC(=O)O)c2)(c2cnc(-c3cc(Oc4c(F)cc5[nH]ccc5c4S(C)(=O)=O)ccc3F)[nH]2)C1 [Example 73, 3-(3-fluoro-5-((1s,3s)-1-(2-(2-fluoro-5-((6-fluoro-4-(methylsulfonyl)-1H-indol-5-yl)oxy)phenyl)-1H-imidazol-5-yl)-3-methoxy-3-methylcyclobutyl)-phenyl)propanoic acid] | A (A: T ≥ 10° C.)
23 | CC(CC#N)(c1cccc(CCC(=O)O)c1)c1cnc(-c2cc(Oc3c(F)cc4[nH]ccc4c3S(C)(=O)=O)ccc2F)[nH]1 (stereo not drawn) [Example 76, 3-(3-(1-Cyano-2-(2-(2-fluoro-5-((6-fluoro-4-(methylsulfonyl)-1H-indol-5-yl)oxy)phenyl)-1H-imidazol-5-yl)propan-2-yl)phenyl)propanoic acid] | A (A: T ≥ 10° C.)
24 | CC(CC#N)(c1cccc(CCC(=O)O)c1)c1cnc(-c2cc(Oc3c(F)cc4[nH]ccc4c3F)ccc2F)[nH]1 (stereo not drawn) [Example 77, 3-(3-(1-cyano-2-(2-(5-((4,6-difluoro-1H-indol-5-yl)oxy)-2-fluorophenyl)-1H-imidazol-5-yl)propan-2-yl)phenyl)propanoic acid] | B (B: 5-10° C.)

— US20240279220A1, “INDOLE COMPOUNDS AND METHODS OF USE” (Genzyme Corporation, priority 2021, published 2024)
